# Assay results as given in paper PMC4839570, “Novel Anthra[1,2-c][1,2,5]Thiadiazole-6,11-Diones as Promising Anticancer Lead Compounds: Biological Evaluation, Characterization & Molecular Targets Determination” (PLoS ONE, 2016).
# Where two headings read alike, the source gives them in different places.
# Columns and labels:
# CAKI-1 = experiment: NCI-60 cytotoxicity screen; type: cell-based
# TK-10 = experiment: NCI-60 cytotoxicity screen; type: cell-based
# PC-3 = experiment: NCI-60 cytotoxicity screen; type: cell-based
# HS 578T = experiment: NCI-60 cytotoxicity screen; type: cell-based
# BT-549 = experiment: NCI-60 cytotoxicity screen; type: cell-based
# T-47D = experiment: NCI-60 cytotoxicity screen; type: cell-based
# BSY-1 = experiment: JFCR-39 cytotoxicity screen; type: cell-based
# U251 = experiment: JFCR-39 cytotoxicity screen; type: cell-based
# SF-539 = experiment: JFCR-39 cytotoxicity screen; type: cell-based
# HCC2998 = experiment: JFCR-39 cytotoxicity screen; type: cell-based
# HCT-116 = experiment: JFCR-39 cytotoxicity screen; type: cell-based
# NCI-H522 = experiment: JFCR-39 cytotoxicity screen; type: cell-based
# LOX-IMVI = experiment: JFCR-39 cytotoxicity screen; type: cell-based
# OVCAR-5 = experiment: JFCR-39 cytotoxicity screen; type: cell-based
# ST-4 = experiment: JFCR-39 cytotoxicity screen; type: cell-based
# MKN28 = experiment: JFCR-39 cytotoxicity screen; type: cell-based
# OVCAR-3 = details: JFCR
# [1] = test system: normal cardiac myoblast H9c2 cells; details: rat
# Description: Briefly, 96 well microtiter plates were inoculated with the specified human cancer cell lines in RPMI 1640 medium containing 5% fetal bovine serum and 2 mM L-glutamine at the specified plating densities. The microtiter plates were incubated at 37°C, 5% CO2, and 100% relative humidity for 24 h. The test compounds were solubilized in DMSO at 400-fold the desired final maximum test concentration, diluted with complete medium containing gentamicin and added to the wells of the microtiter plates to achieve the final desired compound concentration, then incubated for an additional 48 h at the same incubation conditions. The media were removed, the cells were fixed then stained with sulforhodamine B and the unbound dye was removed by washing with acetic acid. The bound dye was resolubilized with trizma base and the absorbance at 515 nm was measured. Cells were stained with the WST-1 cell proliferation reagent instead of sulforhodamine B in some experiments and absorbance were measured at 440 nm. The three dose response parameters GI50, TGI and LC50 were calculated for each experimental compound as follows [48]: For values where Ti ≥ Tz the formula is [ (Ti-Tz) / (C-Tz)] x 100 For values where Ti < Tz the formula is [ (Ti-Tz) / Tz] x 100 Where Ti is the absorbance of the solubilized Sulforhodamine B (SRB) (representing the number of cells) of the five different concentrations of the compound used in the test, Tz is the absorbance of the SRB at time zero, and C is the absorbance of the SRB of the control growth.
# [2] = Homo sapiens, Fig 7, read-out: mean log10 of the GI50 values (converted)
# [3] = Homo sapiens, five-dose, read-out: GI50
# [4] = Homo sapiens, five-dose, read-out: LC50 (the source's name)
# [5] = Homo sapiens, read-out: LC50 (the source's name)
structure (smiles),measurement,setting,value
"O=C1c2ccccc2C(=O)c2c1ccc1nsnc21 [NSC745885, anthra[1,2-c][1,2,5]thiadiazole-6,11-dione]",GI50,CAKI-1; [2],1.86 µM
same,GI50,CAKI-1; [3],1.61 µM
same,CC50,CAKI-1; [4],5.44 µM
same,TGI,CAKI-1; five-dose,2.96 µM
same,GI50,TK-10; [2],10 µM
same,GI50,TK-10; [3],2.85 µM
same,CC50,TK-10; [4],50.4 µM
same,TGI,TK-10; five-dose,10.9 µM
same,GI50,PC-3; [2],3.16 µM
same,GI50,PC-3; [3],3.23 µM
same,CC50,PC-3; [4],> 100 µM
same,TGI,PC-3; five-dose,>100 µM
same,TGI,"HS 578T; HS 578T, five-dose",5.02 µM
same,GI50,"HS 578T; Homo sapiens, Hs-578T, HS578T, Fig 7, read-out: mean log10 of the GI50 values (converted)",2.63 µM
same,GI50,"HS 578T; Homo sapiens, HS 578T, five-dose, read-out: GI50",1.41 µM
same,CC50,"HS 578T; Homo sapiens, HS 578T, five-dose, read-out: LC50 (the source's name)",56 µM
same,GI50,BT-549; [2],4.57 µM
same,GI50,BT-549; [3],1.63 µM
same,CC50,BT-549; [4],6.01 µM
same,TGI,BT-549; five-dose,3.13 µM
same,GI50,"T-47D; Homo sapiens, T47D, Fig 7, read-out: mean log10 of the GI50 values (converted)",0.724 µM
same,GI50,"T-47D; Homo sapiens, T47D, five-dose, read-out: GI50",1.39 µM
same,CC50,"T-47D; Homo sapiens, T47D, five-dose, read-out: LC50 (the source's name)",8.27 µM
same,TGI,T-47D; five-dose,3.39 µM
same,TGI,BSY-1,2.8 µM
same,GI50,BSY-1; Homo sapiens,1.4 µM
same,CC50,BSY-1; [5],5.6 µM
same,TGI,U251,3.1 µM
same,GI50,"U251; Homo sapiens, U-251",1.6 µM
same,CC50,"U251; Homo sapiens, U-251, read-out: LC50 (the source's name)",5.8 µM
same,TGI,SF-539,3.6 µM
same,GI50,SF-539; Homo sapiens,1.9 µM
same,CC50,SF-539; [5],6.6 µM
same,TGI,HCC2998,3.9 µM
same,GI50,"HCC2998; Homo sapiens, HCC 2998",2.1 µM
same,CC50,"HCC2998; Homo sapiens, HCC 2998, read-out: LC50 (the source's name)",7.5 µM
same,TGI,HCT-116,3.0 µM
same,GI50,HCT-116; Homo sapiens,1.6 µM
same,CC50,HCT-116; [5],5.8 µM
same,TGI,NCI-H522,3.0 µM
same,GI50,NCI-H522; Homo sapiens,1.3 µM
same,CC50,NCI-H522; [5],6.7 µM
same,TGI,LOX-IMVI,4.2 µM
same,GI50,LOX-IMVI; Homo sapiens,0.86 µM
same,CC50,LOX-IMVI; [5],> 100 µM
same,TGI,OVCAR-5,3.4 µM
same,GI50,OVCAR-5; Homo sapiens,1.9 µM
same,CC50,OVCAR-5; [5],6 µM
same,TGI,ST-4,4.0 µM
same,GI50,ST-4; Homo sapiens,2 µM
same,CC50,ST-4; [5],8 µM
same,TGI,MKN28,4.4 µM
same,GI50,"MKN28; Homo sapiens, MKN-28",1.8 µM
same,CC50,"MKN28; Homo sapiens, MKN-28, read-out: LC50 (the source's name)",13 µM
same,TGI,OVCAR-3,2.0 µM
same,cytotoxicity towards normal cardiac myoblast H9c2 cells,[1],significantly less cytotoxic effects on H9c2 cells at higher doses than doxorubicin
